Tests used:
HsGSK3β = HsGSK3β (Homo sapiens, UniProt P49841); assay: Radiometric Flashplate potency assay, HsGSK3β; assay type: biochemical; settings: ratio of IC50 values
Procedure: For compound potency determinations, a radiometric 96-well Flashplate assay (PerkinElmer) was adopted. Compounds were solubilized in DMSO at a top concentration of 3 mM and serially diluted to achieve 10-point titration of final assay concentrations from 30 μM to 0.3 nM with a final DMSO concentration of 1% (v/v). The reaction mixtures contained 1 μM biotinylated GSP2 substrate, 1 μM ATP, 3.7 KBq/well [γ-33P]-ATP and 2.5 nM TbGSK3 in the TbGSK3 kinase assay buffer. GSK3 inhibitors were screened for selectivity assessment also against HsGSK3β. For HsGSK3 assay, the reaction mixes contained 1 μM biotinylated GSP2 substrate, 2 μM ATP, 7.4 KBq/well [γ-33P]-ATP and 15 nM HsGSK3β in the TbGSK3 kinase assay buffer (25 mM Tris-HCl, pH 7.5, 10 mM MgCl2, 5 mM DTT, 0.02% CHAPS, 2 U/mL heparin). For HsCDK2/cyclin A assay, the reaction mixtures contained 1 mM CDK5 biotinylated peptide substrate (Biotin-C6-PKTPKKAKKL), 1 μM ATP, 7.4 KBq/well [γ-^33P]-ATP and 2 nM HsCDK2/cyclin A in the kinase assay buffer (50 mM Tris-HCl, pH 7.5, 10 mM MgCl2, 2 mM DTT, 100 mM NaCl, 0.2 mM EGTA, 0.02% (v/v) Brij35).
This implies that a difference of >0.3 in pIC50 can be considered statistically significant for this assay.

RSK1 = target: T1, RSK1 (Homo sapiens, UniProt Q15418); assay: Mammalian kinase profiling (DSTT panel); assay type: biochemical; settings: 10 μM; average percentage of remaining activity
T1 construct: purchased Division of Signal Transduction Therapy (DSTT), University of Dundee
Procedure: (§1) To assess the selectivity of the aminopyrazole inhibitors, remaining activity at 10 μM concentration was measured for compounds 4f, 4m, and 4y against a panel of 80 human PKs and for compound 9g against 124 human PKs. […] Compound 4m inhibited only two PKs, namely GSK3β and CDK2, at more than 80%.
(§2) Selected compounds were screened against a panel of mammalian kinases routinely run by the Division of Signal Transduction Therapy (DSTT) at the University of Dundee in duplicate at 10 μM.[32] Enzymes included in the panel and assay conditions are reported in the literature. All biochemical assays are run below the Km^app for the ATP for each enzyme, allowing comparison of inhibition across the panel.

BTK = target: T2, BTK (Homo sapiens, UniProt Q06187); assay: Mammalian kinase profiling (DSTT panel); assay type: biochemical; settings: 10 μM; average percentage of remaining activity
T2 construct: purchased Division of Signal Transduction Therapy (DSTT), University of Dundee
Procedure: as §1, §2

YES1 = target: T3, YES1 (Homo sapiens, UniProt P07947); assay: Mammalian kinase profiling (DSTT panel); assay type: biochemical; settings: 10 μM; average percentage of remaining activity
T3 construct: purchased Division of Signal Transduction Therapy (DSTT), University of Dundee
T3 sequence (P07947 whole entry): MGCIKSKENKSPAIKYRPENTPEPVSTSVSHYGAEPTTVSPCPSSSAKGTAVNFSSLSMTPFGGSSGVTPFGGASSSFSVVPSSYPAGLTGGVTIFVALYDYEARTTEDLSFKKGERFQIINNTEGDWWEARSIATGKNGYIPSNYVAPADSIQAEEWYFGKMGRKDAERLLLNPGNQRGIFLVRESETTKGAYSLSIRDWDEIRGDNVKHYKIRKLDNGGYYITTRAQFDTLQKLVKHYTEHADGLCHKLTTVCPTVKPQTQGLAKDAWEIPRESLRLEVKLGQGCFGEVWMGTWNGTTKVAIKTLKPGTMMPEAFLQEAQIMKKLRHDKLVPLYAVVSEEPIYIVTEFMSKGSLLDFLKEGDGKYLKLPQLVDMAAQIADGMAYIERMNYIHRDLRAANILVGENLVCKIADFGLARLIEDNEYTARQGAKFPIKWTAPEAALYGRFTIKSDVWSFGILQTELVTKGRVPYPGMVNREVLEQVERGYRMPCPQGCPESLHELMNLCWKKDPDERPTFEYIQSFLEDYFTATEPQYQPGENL
Procedure: as §1, §2

ERK1 = target: T4, ERK1 (Homo sapiens, UniProt P27361); assay: Mammalian kinase profiling (DSTT panel); assay type: biochemical; settings: 10 μM; average percentage of remaining activity
T4 construct: purchased Division of Signal Transduction Therapy (DSTT), University of Dundee
Procedure: as §1, §2

CAMKKb = target: T5, CAMKKb (Homo sapiens, UniProt Q96RR4); assay: Mammalian kinase profiling (DSTT panel); assay type: biochemical; settings: 10 μM; average percentage of remaining activity
T5 construct: purchased Division of Signal Transduction Therapy (DSTT), University of Dundee
Procedure: as §1, §2

PKBb = target: T6, PKBb (Homo sapiens, UniProt P31751); assay: Mammalian kinase profiling (DSTT panel); assay type: biochemical; settings: average percentage of remaining activity, read-out: PKBb activity compared to the control
T6 construct: purchased Division of Signal Transduction Therapy (DSTT), University of Dundee
T6 sequence (P31751 whole entry): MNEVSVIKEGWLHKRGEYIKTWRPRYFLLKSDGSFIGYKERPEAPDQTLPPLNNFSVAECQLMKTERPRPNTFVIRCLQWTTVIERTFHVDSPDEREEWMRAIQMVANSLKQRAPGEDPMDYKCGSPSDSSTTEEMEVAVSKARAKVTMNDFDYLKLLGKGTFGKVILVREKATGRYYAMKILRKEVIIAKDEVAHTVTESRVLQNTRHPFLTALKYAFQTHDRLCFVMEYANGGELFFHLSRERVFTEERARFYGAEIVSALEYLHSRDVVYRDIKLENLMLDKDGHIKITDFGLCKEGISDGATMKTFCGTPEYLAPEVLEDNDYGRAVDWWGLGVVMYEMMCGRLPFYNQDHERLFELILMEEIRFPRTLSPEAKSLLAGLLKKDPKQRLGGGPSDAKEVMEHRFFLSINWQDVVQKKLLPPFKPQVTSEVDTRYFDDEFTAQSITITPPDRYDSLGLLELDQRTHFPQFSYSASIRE
Procedure: as §1, §2

S6K1 = target: T7, S6K1 (Homo sapiens, UniProt P23443); assay: Mammalian kinase profiling (DSTT panel); assay type: biochemical; settings: 10 μM; average percentage of remaining activity
T7 construct: purchased Division of Signal Transduction Therapy (DSTT), University of Dundee
Procedure: as §1, §2

PRAK = target: T8, PRAK (Homo sapiens, UniProt Q8IW41); assay: Mammalian kinase profiling (DSTT panel); assay type: biochemical; settings: 10 μM; average percentage of remaining activity
T8 construct: purchased Division of Signal Transduction Therapy (DSTT), University of Dundee
T8 sequence (Q8IW41 1-473): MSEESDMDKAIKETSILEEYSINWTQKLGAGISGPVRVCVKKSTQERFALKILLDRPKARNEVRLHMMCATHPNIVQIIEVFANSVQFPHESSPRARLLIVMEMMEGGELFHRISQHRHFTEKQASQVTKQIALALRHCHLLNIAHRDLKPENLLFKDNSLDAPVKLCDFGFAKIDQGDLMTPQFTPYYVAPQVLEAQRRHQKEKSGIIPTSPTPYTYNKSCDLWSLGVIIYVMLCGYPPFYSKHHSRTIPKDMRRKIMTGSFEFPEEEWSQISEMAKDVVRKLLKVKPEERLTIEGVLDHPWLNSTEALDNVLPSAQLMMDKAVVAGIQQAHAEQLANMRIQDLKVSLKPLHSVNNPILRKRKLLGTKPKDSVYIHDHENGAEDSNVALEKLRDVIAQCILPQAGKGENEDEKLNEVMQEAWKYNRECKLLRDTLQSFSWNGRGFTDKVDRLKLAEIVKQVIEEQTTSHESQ
Procedure: as §1, §2

CAMK1 = target: T9, CAMK1 (Homo sapiens, UniProt Q14012); assay: Mammalian kinase profiling (DSTT panel); assay type: biochemical; settings: 10 μM; average percentage of remaining activity
T9 construct: purchased Division of Signal Transduction Therapy (DSTT), University of Dundee
T9 sequence (Q14012 whole entry): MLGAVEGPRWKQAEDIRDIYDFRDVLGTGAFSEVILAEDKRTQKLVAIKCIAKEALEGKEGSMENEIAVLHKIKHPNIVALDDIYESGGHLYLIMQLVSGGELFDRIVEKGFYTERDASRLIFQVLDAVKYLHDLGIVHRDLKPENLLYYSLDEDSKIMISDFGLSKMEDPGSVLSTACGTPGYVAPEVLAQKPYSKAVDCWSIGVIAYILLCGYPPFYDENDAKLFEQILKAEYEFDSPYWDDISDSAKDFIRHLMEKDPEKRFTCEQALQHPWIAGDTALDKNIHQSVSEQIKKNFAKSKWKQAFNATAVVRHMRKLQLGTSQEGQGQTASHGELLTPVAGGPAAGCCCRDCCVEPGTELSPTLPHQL
Procedure: as §1, §2

SRPK1 = target: T10, SRPK1 (Homo sapiens, UniProt Q96SB4); assay: Mammalian kinase profiling (DSTT panel); assay type: biochemical; settings: 10 μM; average percentage of remaining activity
T10 construct: purchased Division of Signal Transduction Therapy (DSTT), University of Dundee
Procedure: as §1, §2

PAK5 = target: T11, PAK5 (Homo sapiens, UniProt Q9P286); assay: Mammalian kinase profiling (DSTT panel); assay type: biochemical; settings: 10 μM; average percentage of remaining activity
T11 construct: purchased Division of Signal Transduction Therapy (DSTT), University of Dundee
Procedure: as §1, §2

PAK4 = target: T12, PAK4 (Homo sapiens, UniProt O96013); assay: Mammalian kinase profiling (DSTT panel); assay type: biochemical; settings: 10 μM; average percentage of remaining activity
T12 construct: purchased Division of Signal Transduction Therapy (DSTT), University of Dundee
T12 sequence (O96013 whole entry): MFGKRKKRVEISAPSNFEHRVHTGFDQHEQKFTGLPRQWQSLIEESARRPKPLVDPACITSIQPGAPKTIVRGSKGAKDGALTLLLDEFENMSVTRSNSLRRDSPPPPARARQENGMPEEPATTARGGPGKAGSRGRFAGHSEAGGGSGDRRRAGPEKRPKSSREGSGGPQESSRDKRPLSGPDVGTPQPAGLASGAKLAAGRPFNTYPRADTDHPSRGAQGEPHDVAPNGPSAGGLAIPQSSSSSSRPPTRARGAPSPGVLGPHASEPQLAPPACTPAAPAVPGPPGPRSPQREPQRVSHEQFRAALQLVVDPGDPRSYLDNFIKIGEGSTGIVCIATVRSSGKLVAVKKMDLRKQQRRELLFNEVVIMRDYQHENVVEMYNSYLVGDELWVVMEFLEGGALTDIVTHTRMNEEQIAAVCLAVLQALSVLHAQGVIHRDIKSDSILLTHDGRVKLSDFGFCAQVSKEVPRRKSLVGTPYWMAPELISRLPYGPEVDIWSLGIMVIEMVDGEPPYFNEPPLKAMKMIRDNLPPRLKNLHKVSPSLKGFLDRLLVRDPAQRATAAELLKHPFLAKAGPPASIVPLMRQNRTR
Procedure: as §1, §2

SmMLCK = target: T13, SmMLCK (Homo sapiens, UniProt Q15746); assay: Mammalian kinase profiling (DSTT panel); assay type: biochemical; settings: 10 μM; average percentage of remaining activity
T13 construct: purchased Division of Signal Transduction Therapy (DSTT), University of Dundee
T13 sequence (Q15746 923-1914): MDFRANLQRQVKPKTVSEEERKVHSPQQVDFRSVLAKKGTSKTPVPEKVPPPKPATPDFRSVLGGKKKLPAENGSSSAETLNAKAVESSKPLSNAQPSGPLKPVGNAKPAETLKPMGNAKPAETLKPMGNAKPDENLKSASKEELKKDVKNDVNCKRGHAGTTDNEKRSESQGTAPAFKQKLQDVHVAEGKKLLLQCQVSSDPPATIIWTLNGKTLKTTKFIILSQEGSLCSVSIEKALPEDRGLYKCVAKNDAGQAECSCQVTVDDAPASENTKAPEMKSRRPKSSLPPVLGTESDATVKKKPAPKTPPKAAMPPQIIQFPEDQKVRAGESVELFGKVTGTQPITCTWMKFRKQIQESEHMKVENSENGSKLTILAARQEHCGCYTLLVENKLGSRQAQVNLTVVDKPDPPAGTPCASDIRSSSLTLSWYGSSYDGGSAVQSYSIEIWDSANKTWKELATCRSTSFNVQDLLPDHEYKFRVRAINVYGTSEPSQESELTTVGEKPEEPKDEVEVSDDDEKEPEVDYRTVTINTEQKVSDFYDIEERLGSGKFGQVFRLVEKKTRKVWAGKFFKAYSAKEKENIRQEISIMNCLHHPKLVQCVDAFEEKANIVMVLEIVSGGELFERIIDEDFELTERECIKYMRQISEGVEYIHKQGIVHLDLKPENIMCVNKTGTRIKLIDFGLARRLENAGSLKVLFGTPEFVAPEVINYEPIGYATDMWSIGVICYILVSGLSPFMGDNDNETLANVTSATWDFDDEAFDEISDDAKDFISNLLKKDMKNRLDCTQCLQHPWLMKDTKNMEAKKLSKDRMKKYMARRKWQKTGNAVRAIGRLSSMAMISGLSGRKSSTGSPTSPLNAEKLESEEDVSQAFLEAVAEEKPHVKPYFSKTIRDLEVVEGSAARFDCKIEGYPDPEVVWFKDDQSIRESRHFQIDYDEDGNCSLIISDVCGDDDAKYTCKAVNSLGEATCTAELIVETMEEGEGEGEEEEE
Procedure: as §1, §2

Lck = target: T14, Lck (Homo sapiens, UniProt P06239); assay: Mammalian kinase profiling (DSTT panel); assay type: biochemical; settings: 10 μM; average percentage of remaining activity
T14 construct: purchased Division of Signal Transduction Therapy (DSTT), University of Dundee
T14 sequence (P06239 whole entry): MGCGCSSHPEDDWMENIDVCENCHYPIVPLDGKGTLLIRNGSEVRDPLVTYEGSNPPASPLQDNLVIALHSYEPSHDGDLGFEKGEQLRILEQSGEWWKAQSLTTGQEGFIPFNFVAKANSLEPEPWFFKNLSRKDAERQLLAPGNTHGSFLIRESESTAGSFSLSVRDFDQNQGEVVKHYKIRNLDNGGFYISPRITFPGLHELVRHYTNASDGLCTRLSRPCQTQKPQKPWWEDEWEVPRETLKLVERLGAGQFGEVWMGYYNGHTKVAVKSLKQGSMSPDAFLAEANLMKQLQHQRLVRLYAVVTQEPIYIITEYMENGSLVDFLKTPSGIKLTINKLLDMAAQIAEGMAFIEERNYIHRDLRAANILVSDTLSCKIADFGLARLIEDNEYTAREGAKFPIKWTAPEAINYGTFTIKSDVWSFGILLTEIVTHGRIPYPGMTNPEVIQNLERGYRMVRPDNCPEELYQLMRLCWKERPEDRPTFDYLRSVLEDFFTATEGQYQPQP
Procedure: as §1, §2

MSK1 = target: T15, MSK1 (Homo sapiens, UniProt O75582); assay: Mammalian kinase profiling (DSTT panel); assay type: biochemical; settings: 10 μM; average percentage of remaining activity
T15 construct: purchased Division of Signal Transduction Therapy (DSTT), University of Dundee
T15 sequence (O75582 whole entry): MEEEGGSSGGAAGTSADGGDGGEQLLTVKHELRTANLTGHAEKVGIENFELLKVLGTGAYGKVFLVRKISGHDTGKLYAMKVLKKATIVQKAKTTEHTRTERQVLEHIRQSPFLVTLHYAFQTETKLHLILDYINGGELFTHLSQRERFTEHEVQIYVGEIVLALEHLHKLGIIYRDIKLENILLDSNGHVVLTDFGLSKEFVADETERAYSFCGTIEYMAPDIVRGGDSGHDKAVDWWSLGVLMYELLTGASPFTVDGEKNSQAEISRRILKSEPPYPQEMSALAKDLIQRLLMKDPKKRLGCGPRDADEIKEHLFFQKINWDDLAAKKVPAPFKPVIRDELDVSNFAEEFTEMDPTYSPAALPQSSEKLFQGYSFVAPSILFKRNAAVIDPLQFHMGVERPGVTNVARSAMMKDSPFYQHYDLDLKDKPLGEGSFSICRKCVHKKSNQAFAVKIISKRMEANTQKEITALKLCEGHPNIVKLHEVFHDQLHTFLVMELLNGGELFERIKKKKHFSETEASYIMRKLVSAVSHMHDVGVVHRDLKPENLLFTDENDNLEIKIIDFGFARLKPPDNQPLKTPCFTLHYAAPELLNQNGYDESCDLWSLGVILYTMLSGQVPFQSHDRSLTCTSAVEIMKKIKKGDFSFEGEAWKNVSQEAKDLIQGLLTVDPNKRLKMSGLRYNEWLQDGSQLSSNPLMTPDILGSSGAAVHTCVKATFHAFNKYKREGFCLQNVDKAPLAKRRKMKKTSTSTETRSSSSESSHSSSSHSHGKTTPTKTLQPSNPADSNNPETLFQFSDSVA
Procedure: as §1, §2

SGK1 = target: T16, SGK1 (Homo sapiens, UniProt O00141); assay: Mammalian kinase profiling (DSTT panel); assay type: biochemical; settings: 10 μM; average percentage of remaining activity
T16 construct: purchased Division of Signal Transduction Therapy (DSTT), University of Dundee
T16 sequence (O00141 1-431): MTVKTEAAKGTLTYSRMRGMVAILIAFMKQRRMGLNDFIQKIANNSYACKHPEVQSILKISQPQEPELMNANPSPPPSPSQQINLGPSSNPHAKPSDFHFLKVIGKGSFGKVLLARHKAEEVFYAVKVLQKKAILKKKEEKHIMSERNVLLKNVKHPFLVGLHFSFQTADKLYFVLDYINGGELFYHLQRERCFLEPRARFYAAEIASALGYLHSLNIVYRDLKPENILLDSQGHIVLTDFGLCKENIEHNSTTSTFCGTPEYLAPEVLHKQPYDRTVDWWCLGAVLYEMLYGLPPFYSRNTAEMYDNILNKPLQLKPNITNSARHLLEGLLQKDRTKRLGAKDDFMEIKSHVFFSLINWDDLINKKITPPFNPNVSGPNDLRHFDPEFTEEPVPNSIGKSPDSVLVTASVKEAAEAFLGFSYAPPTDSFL
Procedure: as §1, §2

PIM2 = target: T17, PIM2 (Homo sapiens, UniProt Q9P1W9); assay: Mammalian kinase profiling (DSTT panel); assay type: biochemical; settings: 10 μM; average percentage of remaining activity
T17 construct: purchased Division of Signal Transduction Therapy (DSTT), University of Dundee
T17 sequence (Q9P1W9 whole entry): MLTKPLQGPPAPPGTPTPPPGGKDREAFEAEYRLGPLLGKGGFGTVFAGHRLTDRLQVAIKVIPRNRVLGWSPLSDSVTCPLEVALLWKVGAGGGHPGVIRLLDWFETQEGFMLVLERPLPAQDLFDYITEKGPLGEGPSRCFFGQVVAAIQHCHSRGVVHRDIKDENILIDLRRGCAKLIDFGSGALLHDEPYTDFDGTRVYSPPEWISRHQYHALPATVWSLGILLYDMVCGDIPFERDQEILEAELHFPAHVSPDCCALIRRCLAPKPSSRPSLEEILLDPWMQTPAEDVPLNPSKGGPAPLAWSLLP
Procedure: as §1, §2

IKK = assay: Mammalian kinase profiling (DSTT panel); assay type: biochemical, human; settings: 10 μM; average percentage of remaining activity
Procedure: as §1, §2

HsGSK3β, sequence (P49841 whole entry): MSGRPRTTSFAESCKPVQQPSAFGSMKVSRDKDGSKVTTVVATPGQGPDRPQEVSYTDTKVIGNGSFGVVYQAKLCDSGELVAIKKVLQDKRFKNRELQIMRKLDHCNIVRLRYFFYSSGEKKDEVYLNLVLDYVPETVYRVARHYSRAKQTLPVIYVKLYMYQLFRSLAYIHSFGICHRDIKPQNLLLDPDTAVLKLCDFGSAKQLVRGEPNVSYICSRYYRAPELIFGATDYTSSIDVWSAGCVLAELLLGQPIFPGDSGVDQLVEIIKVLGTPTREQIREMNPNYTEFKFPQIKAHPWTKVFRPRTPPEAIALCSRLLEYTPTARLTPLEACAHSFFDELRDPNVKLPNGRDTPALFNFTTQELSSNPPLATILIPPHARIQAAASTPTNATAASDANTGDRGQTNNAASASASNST

SMILES | ratio HsGSK3β/TbGSK3 (HsGSK3β) | RSK1 activity compared to the control (RSK1) [%] | BTK activity compared to the control (BTK) [%] | YES1 activity compared to the control (YES1) [%] | ERK1 activity compared to the control (ERK1) [%] | CAMKKb activity compared to the control (CAMKKb) [%] | remaining activity at 10 µM (PKBb) [%] | S6K1 activity compared to the control (S6K1) [%] | PRAK activity compared to the control (PRAK) [%] | CAMK1 activity compared to the control (CAMK1) [%] | SRPK1 activity compared to the control (SRPK1) [%] | PAK5 activity compared to the control (PAK5) [%] | PAK4 activity compared to the control (PAK4) [%] | SmMLCK activity compared to the control (SmMLCK) [%] | Lck activity compared to the control (Lck) [%] | MSK1 activity compared to the control (MSK1) [%] | SGK1 activity compared to the control (SGK1) [%] | PIM2 activity compared to the control (PIM2) [%] | IKK activity compared to the control (IKK) [%]
CO[C@H]1CC[C@H](NC(=O)c2n[nH]cc2NC(=O)c2ccccc2)CC1 [Compound 4f, 4-Benzamido-N-(4-methoxycyclohexyl)-1H-pyrazole-3-carboxamide] | >0.21 | 74 | 100 | 100 | 75 | 34 | 45 | 100 | 52 | 36 | 90 | 68 | 68 | 25 | 76 | 80 | 89 | 90 | 68
COc1cccc(OC)c1C(=O)Nc1c[nH]nc1C(=O)NC1CCC(OC)CC1 (stereo not drawn) [Compound 4m, 4-(2,6-Dimethoxybenzamido)-N-(4-methoxycyclohexyl)-1H-pyrazole-3-carboxamide] | <2.5 | 70 | 100 | 79 | 100 | 50 | 98 | 100 | 92 | 76 | 78 | 75 | 74 | 65 | 90 | 86 | 92 | 97 | 90
CO[C@H]1CC[C@H](NC(=O)c2n[nH]cc2NC(=O)c2ccc(-c3ccccc3)o2)CC1 [Compound 4y, N-(4-Methoxycyclohexyl)-4-(5-phenylfuran-2-carboxamido)-1H-pyrazole-3-carboxamide] | <0.72 | 54 | 100 | 45 | 33 | 27 | 84 | 58 | 65 | 46 | 72 | 47 | 27 | 23 | 67 | 66 | 81 | 82 | 71
